{"source": "patent US20060025419A1", "about": "“Imidazoquinoxaline compound for the treatment of melanoma” (priority 2004, published 2006)", "key": {"[1]": {"assay": "BMS-345541 levels in mouse serum and tumor tissues after oral dose", "format": "in vivo, mice", "protocol": "(§1) FIGS. 1A-1E. […] After 72 h treatment, cells were photographed. […] 2×10^6 SK-Mel-5 melanoma cells were subcutaneously inoculated into nude mice (n=5 mice per group). […] Tumor size was measured using an electronic digital caliper at intervals of 4 days. Tumor volume was calculated and statistically analyzed. Data shown are representative of two independent experiments. […] BMS-345541 levels in serum (μM, left axis) and tumor tissues (nmoles per gram tumor protein, right axes) were determined at the indicated time points.\nTumor tissue levels of drug were 3.2±0.97, 12.5±3.28 and 28.1±2.65 nmoles per gram tissue protein for the three treatment groups, respectively."}, "[2]": {"test_system": "mitochondria isolated from SK-Mel-5", "assay": "Cytochrome-c release from isolated mitochondria", "parameters": "species or system human", "conditions": "10 μM, 4° C., 30 min", "protocol": "FIGS. 5A-5E. […] (FIG. 5A) Redistribution of Bcl-2 and Bax in mitochondria. […] Subcellular mitochondria and cytoplasm were prepared and subjected to Western blot analysis for Bcl-2 and Bax. (FIG. 5B) Dissipation of mitochondrial Δψm. […] After exposure, mitochondria were isolated and incubated with 80 μM 3,3′dihexyloxacarbocyanine iodide (DiOC6) at 37° C. for 15 min. Δψm was determined by FACS analysis using 484/530 nm filters within 10 min while gating the forward and sideward scatters on intact mitochondria (FIG. 5C). (FIG. 5D) Release of cytochrome-C and AIF. […] Subcellular extracts were prepared and subjected to Western blot analysis for cytochrome-C and AIF. […] The supernatant was assessed for cytochrome-c release. […]\nThe Mitochondria Isolation Kit (Pierce, Rockford, Ill.) was used for isolation of mitochondria from cultured melanoma cells according to the manufacture's instruction for the Reagent-based method. […] The purity of mitochondria was determined by Western blotting with β-actin, where β-actin negative preparation were fully to be pure. […]\nMitochondria play a crucial role in the regulation of programmed cell death (Zamzami et al., 1995a; 1995b; 1996a; 1996b). […] To investigate alteration of the apoptotic proteins in mitochondria during BMS-345541-induced apoptosis, the ratio of Bcl-2 and Bax distributed in mitochondria was analyzed in SK-Mel-5 cells using Western blot. […]"}, "[3]": {"target": "T1, IKK (Homo sapiens, UniProt O14920+O15111)", "T1 construct": "Equal aliquots of cytoplasmic IKK proteins were immunoprecipitated with anti-IKKα/β antibodies; endogenous in cells; host or cells: SK-Mel-5 human melanoma cells, cytoplasmic extract, immunoprecipitated on Protein A/G agarose beads", "assay": "Cell-free IKK kinase assay with washing (reversibility)", "format": "biochemical", "conditions": "immunopurified IKK, 10 μM, 20 min, washed three times", "experimental": "To analyze the IKK activity, cytoplasmic extracts were prepared from cells cultured for 24 h in serum-free medium. Cells were mechanically released from tissue culture plates by scraping in cold PBS according to standard protocols. Cells were collected by centrifugation (800×g), and then resuspended in lysis buffer [10 mM HEPES (pH 7.9), 10 mM KCl, 0.1 mM EDTA, 0.1 mM EGTA, 0.1% NP40, 1 mM DTT, and 0.5 mM phenylmethylsulfonyl fluoride] with Complete Protein Inhibitors (Roche). 400 μg aliquots of cytoplasmic extracts were incubated with 1 μg each of IKKα and IKKβ polyclonal antibodies (Santa Cruz Biotechnology) and 60 μg aliquots of Protein A/G agarose-conjugated beads for 4 h at 4° C. […] The reaction mixtures were resolved by SDS-PAGE, transferred to nitrocellulose membrane, and phosphorylated IκB was detected by autoradiography.\nEqual aliquots of cytoplasmic IKK proteins were immunoprecipitated with anti-IKKα/β antibodies and IKK activity was determined in an in vitro kinase assay using recombinant IκBα protein as a substrate for IκB kinase. The IKK activity was determined by autoradiography."}, "[4]": {"test_system": "SK-Mel-5 tumors", "assay": "Melanoma tumor growth in nude mice", "format": "in vivo", "conditions": "21 days", "protocol": "FIGS. 1A-1E. […] After 72 h treatment, cells were photographed. […] 2×10^6 SK-Mel-5 melanoma cells were subcutaneously inoculated into nude mice (n=5 mice per group). […] Tumor size was measured using an electronic digital caliper at intervals of 4 days. Tumor volume was calculated and statistically analyzed.\nAnimal experimentation was undertaken according to protocols approved by the Institutional of Animal Care and Use Committee at Vanderbilt University. […] Tumor size was measured with an electronic digital caliper. Tumor volume was calculated by width^2×length×0.52 and expressed as mean±SD mm^3."}, "[5]": {"test_system": "SK-Mel-5 cells", "assay": "Growth of cultured melanoma cells, hemocytometer counting", "format": "cell-based, human", "protocol": "as §1\nA super-repressor form of human IκBα (S32, 36A) resistant to degradation and mutant IKKβ (K44M) was kindly provided by Javier Piedrafita (Sidney Kimmel Cancer Center, University of California-San Diego School of Medicine). Antibodies to IKKα (H-744), IKKβ (H-470), Bcl-2, Bax and AIF were purchased from Santa Cruz Biotechnology, Inc. (Santa Cruz, Calif.). Dihydroethidine, 3,3′dihexyloxacarbocyanine iodide and pan-caspase inhibitor (Z-VAD-FMK) were purchased from Molecular Probes (Eugene, Oreg.). N-acetyl-L-cysteine (NAC) and Tiron were from Sigma-Aldrich (St. Louis, Mo.). Normal human epidermal melanocytes (NHEM) were provided by the Skin Disease Research Center in Vanderbilt University School of Medicine. NHEM were cultured in 154 medium with 1× human melanocyte growth supplement (Cascade Biologicals, Inc.). The melanoma cell lines, Sk Mel5, A375 and Hs294T, originally established from human metastatic melanoma, were purchased from American Type Culture Collection and cultured in DMEM: Ham's F-12 medium containing 10% FBS, 2 mM of L-glutamine, 100 μM of MEM Non-Essential Amino Acids (Life Technologies, Inc.), and 1 mM of sodium pyruvate (Sigma Chemical Co.).\nAberrant activation of NF-κB has been associated with carcinogenesis, and constitutively high IKK activity has been detected in many tumor types, including human melanoma (Yang & Richmond, 2001; Liptay et al., 2003; Mathas et al., 2003). IKK is a major regulator of the NF-κB pathway and therefore represents an attractive therapeutic target in advanced cancers. […] After three days of culture, the cell numbers were determined by hemocytometer counting (Table 1)."}}, "data": [{"smiles": "Cc1ccc2nc(NCCN)c3ncc(C)n3c2c1.Cl", "note": "[BMS-345541, 4(2′-aminoethyl)amino-1,8-dimethylimidazo(1,2-a)quinoxaline]", "values": [{"measurement": "concentration in tumor tissues", "setting": "[1]; 75 mg/kg oral, 1.5 h (FIG. 1E)", "result": "19±2.5", "unit": "nmoles/g tissue protein"}, {"measurement": "concentration in tumor tissues", "setting": "[1]; 75 mg/kg oral, 3 h (FIG. 1E)", "result": "44±1.5", "unit": "nmoles/g tissue protein"}, {"measurement": "concentration in tumor tissues", "setting": "[1]; 75 mg/kg oral, 5 h (FIG. 1E)", "result": "30±1.0", "unit": "nmoles/g tissue protein"}, {"measurement": "concentration in tumor tissues", "setting": "[1]; 75 mg/kg oral, 8 h (FIG. 1E)", "result": "29±2.5", "unit": "nmoles/g tissue protein"}, {"measurement": "concentration in tumor tissues", "setting": "[1]; 75 mg/kg oral, 24 h (FIG. 1E)", "result": "11±0.83", "unit": "nmoles/g tissue protein"}, {"measurement": "tumor tissue level", "setting": "[1]; 8 h after oral dose of 10 mg/kg", "result": "3.2±0.97 nmoles per gram tissue protein"}, {"measurement": "tumor tissue level", "setting": "[1]; 8 h after oral dose of 25 mg/kg", "result": "12.5±3.28 nmoles per gram tissue protein"}, {"measurement": "tumor tissue level", "setting": "[1]; 8 h after oral dose of 75 mg/kg (dose series)", "result": "28.1±2.65 nmoles per gram tissue protein"}, {"measurement": "concentration at 1.5 h", "setting": "[1]; nude, mouse, serum, 75 mg/kg oral, 1.5 h (FIG. 1E)", "result": "6.6 ± 0.31", "unit": "µM"}, {"measurement": "concentration at 3 h", "setting": "[1]; nude, mouse, serum, 75 mg/kg oral, 3 h (FIG. 1E)", "result": "18 ± 1.3", "unit": "µM"}, {"measurement": "concentration at 5 h", "setting": "[1]; nude, mouse, serum, 75 mg/kg oral, 5 h (FIG. 1E)", "result": "5.2 ± 0.19", "unit": "µM"}, {"measurement": "concentration at 8 h", "setting": "[1]; nude, mouse, serum, 75 mg/kg oral, 8 h (FIG. 1E)", "result": "4.1 ± 0.22", "unit": "µM"}, {"measurement": "concentration at 24 h", "setting": "[1]; nude, mouse, serum, 75 mg/kg oral, 24 h (FIG. 1E)", "result": "1.1 ± 0.065", "unit": "µM"}, {"measurement": "concentration at 8 h", "setting": "[1]; nude, mouse, serum, 8 h after oral dose of 10 mg/kg", "result": "0.9 ± 0.25", "unit": "µM"}, {"measurement": "concentration at 8 h", "setting": "[1]; nude, mouse, serum, 8 h after oral dose of 25 mg/kg", "result": "3.1 ± 1.1", "unit": "µM"}, {"measurement": "concentration at 8 h", "setting": "[1]; nude, mouse, serum, 8 h after oral dose of 75 mg/kg (dose series)", "result": "8.2 ± 1.1", "unit": "µM"}, {"measurement": "direct action on isolated mitochondria (cytochrome-c release into supernatant)", "setting": "[2]", "result": "no direct action"}, {"measurement": "reversibility of IKK inhibition by washing", "setting": "[3]", "result": "reversed after the washing steps"}, {"measurement": "SK-Mel-5 tumor growth (FIG. 1B)", "setting": "[4]; 10, 25 and 75 mg/kg orally once daily", "result": "effectively inhibits SK-Mel-5 tumor growth in a dose-dependent manner"}, {"measurement": "inhibition of tumor growth", "setting": "[4]; SK-Mel-5 tumors, 75 mg/kg orally once daily, vs vehicle", "result": "86±2.8", "unit": "%"}, {"measurement": "cell morphology", "setting": "[5]; 10 μM or 100 μM, 14 h (FIG. 1A)", "result": "appeared morphologically apoptotic"}, {"measurement": "cell number after three days of culture", "setting": "[5]; Sk-Mel-5, 0.1 μM", "result": "3.7 ± 0.55 10^5"}, {"measurement": "cell number after three days of culture", "setting": "[5]; Sk-Mel-5, 1.0 μM", "result": "2.7 ± 0.31 10^5"}, {"measurement": "cell number after three days of culture", "setting": "[5]; Sk-Mel-5, 10 μM", "result": "0.028 ± 0.02 10^5"}, {"measurement": "cell number after three days of culture", "setting": "[5]; Sk-Mel-5, 100 μM", "result": "0 10^5"}]}]}
